Experimental data as given in ChEMBL document CHEMBL4308841, “Synthesis, in vitro antiproliferative activity, and kinase inhibitory effects of pyrazole-containing diarylureas and diarylamides” (Eur J Med Chem, 2018).

Legend:
HL-60(TB) = test: Growth inhibition of human HL-60(TB) cells assessed as cell growth at 100 uM incubated for 48 hrs by sulforhodamine B assay relative to control; format: functional; conditions: HL-60, 48 h, read-out: Activity
OVCAR-5 = test: Growth inhibition of human OVCAR5 cells assessed as cell growth at 0.1 uM incubated for 48 hrs by sulforhodamine B assay relative to control; format: functional; conditions: OVCAR-5, 48 h, read-out: Activity
OVCAR-8 [1] = test: Growth inhibition of human OVCAR8 cells assessed as cell growth at 1 uM incubated for 48 hrs by sulforhodamine B assay relative to control; format: functional; conditions: OVCAR-8, 48 h, read-out: Activity
SK-MEL-5 = test: Growth inhibition of human SK-MEL-5 cells assessed as cell growth at 1 uM incubated for 48 hrs by sulforhodamine B assay relative to control; format: functional; conditions: SK-MEL-5, 48 h, read-out: Activity
M14 = test: Growth inhibition of human M14 cells assessed as cell growth at 0.01 uM incubated for 48 hrs by sulforhodamine B assay relative to control; format: functional; conditions: M14, 48 h, read-out: Activity
SNB-75 = test: Growth inhibition of human SNB75 cells assessed as cell growth at 100 uM incubated for 48 hrs by sulforhodamine B assay relative to control; format: functional; conditions: SNB-75, 48 h, read-out: Activity
NCI-H460 = test: Growth inhibition of human NCI-H460 cells assessed as cell growth at 1 uM incubated for 48 hrs by sulforhodamine B assay relative to control; format: functional; conditions: NCI-H460, 48 h, read-out: Activity
OVCAR-3 = test: Growth inhibition of human OVCAR3 cells assessed as cell growth at 1 uM incubated for 48 hrs by sulforhodamine B assay relative to control; format: functional; conditions: OVCAR-3, 48 h, read-out: Activity
OVCAR-8 [2] = test: Growth inhibition of human OVCAR8 cells assessed as cell growth at 100 uM incubated for 48 hrs by sulforhodamine B assay relative to control; format: functional; conditions: OVCAR-8, 48 h, read-out: Activity
HCT-116 = test: Growth inhibition of human HCT116 cells incubated for 48 hrs by sulforhodamine B assay; format: functional, cell-based; conditions: HCT-116, 48 h
NCI-H522 [3] = test: Growth inhibition of human NCI-H522 cells assessed as cell growth at 10 uM incubated for 48 hrs by sulforhodamine B assay relative to control; format: functional; conditions: NCI-H522, 48 h, read-out: Activity
T47D [4] = test: Growth inhibition of human T47D cells assessed as cell growth at 100 uM incubated for 48 hrs by sulforhodamine B assay relative to control; format: functional; conditions: read-out: Activity
SF-295 = test: Growth inhibition of human SF295 cells assessed as cell growth at 100 uM incubated for 48 hrs by sulforhodamine B assay relative to control; format: functional; conditions: SF-295, 48 h, read-out: Activity
COLO 205 [5] = test: Growth inhibition of human COLO205 cells assessed as cell growth at 1 uM incubated for 48 hrs by sulforhodamine B assay relative to control; format: functional; conditions: COLO 205, 48 h, read-out: Activity
SN12C = test: Growth inhibition of human SN12C cells incubated for 48 hrs by sulforhodamine B assay; format: functional, cell-based
KM12 = test: Growth inhibition of human KM12 cells assessed as cell growth at 100 uM incubated for 48 hrs by sulforhodamine B assay relative to control; format: functional; conditions: KM12, 48 h, read-out: Activity
NCI-H522 [6] = test: Growth inhibition of human NCI-H522 cells assessed as cell growth at 0.01 uM incubated for 48 hrs by sulforhodamine B assay relative to control; format: functional; conditions: NCI-H522, 48 h, read-out: Activity
NCI-H23 = test: Growth inhibition of human NCI-H23 cells assessed as cell growth at 100 uM incubated for 48 hrs by sulforhodamine B assay relative to control; format: functional; conditions: NCI-H23, 48 h, read-out: Activity
OVCAR-4 [7] = test: Growth inhibition of human OVCAR4 cells assessed as cell growth at 1 uM incubated for 48 hrs by sulforhodamine B assay relative to control; format: functional; conditions: OVCAR-4, 48 h, read-out: Activity
MCF7 = test: Growth inhibition of human MCF7 cells assessed as cell growth at 0.01 uM incubated for 48 hrs by sulforhodamine B assay relative to control; format: functional; conditions: MCF7, 48 h, read-out: Activity
OVCAR-8 [8] = test: Growth inhibition of human OVCAR8 cells assessed as cell growth at 0.1 uM incubated for 48 hrs by sulforhodamine B assay relative to control; format: functional; conditions: OVCAR-8, 48 h, read-out: Activity
HT-29 = test: Growth inhibition of human HT-29 cells assessed as cell growth at 1 uM incubated for 48 hrs by sulforhodamine B assay relative to control; format: functional; conditions: HT-29, 48 h, read-out: Activity
COLO 205 [9] = test: Growth inhibition of human COLO205 cells assessed as cell growth at 100 uM incubated for 48 hrs by sulforhodamine B assay relative to control; format: functional; conditions: COLO 205, 48 h, read-out: Activity
SNB-19 = test: Growth inhibition of human SNB19 cells assessed as cell growth at 0.1 uM incubated for 48 hrs by sulforhodamine B assay relative to control; format: functional; conditions: SNB-19, 48 h, read-out: Activity
K562 = test: Growth inhibition of human K562 cells assessed as cell growth at 0.1 uM incubated for 48 hrs by sulforhodamine B assay relative to control; format: functional; conditions: K562, 48 h, read-out: Activity
SK-OV-3 = test: Growth inhibition of human SKOV3 cells assessed as cell growth at 1 uM incubated for 48 hrs by sulforhodamine B assay relative to control; format: functional; conditions: SK-OV-3, 48 h, read-out: Activity
NCI-H226 = test: Growth inhibition of human NCI-H226 cells assessed as cell growth at 0.1 uM incubated for 48 hrs by sulforhodamine B assay relative to control; format: functional; conditions: NCI-H226, 48 h, read-out: Activity
HOP-62 = test: Growth inhibition of human HOP62 cells assessed as cell growth at 0.01 uM incubated for 48 hrs by sulforhodamine B assay relative to control; format: functional; conditions: HOP-62, 48 h, read-out: Activity
OVCAR-4 [10] = test: Growth inhibition of human OVCAR4 cells incubated for 48 hrs by sulforhodamine B assay; format: functional, cell-based; conditions: OVCAR-4, 48 h
T47D [11] = test: Growth inhibition of human T47D cells assessed as cell growth at 1 uM incubated for 48 hrs by sulforhodamine B assay relative to control; format: functional; conditions: read-out: Activity
SR = test: Growth inhibition of human SR cells assessed as cell growth at 100 uM incubated for 48 hrs by sulforhodamine B assay relative to control; format: functional; conditions: read-out: Activity
SK-MEL-2 = test: Growth inhibition of human SK-MEL-2 cells assessed as cell growth at 0.01 uM incubated for 48 hrs by sulforhodamine B assay relative to control; format: functional; conditions: SK-MEL-2, 48 h, read-out: Activity
[12] = read-out: LC50 (the source's name)
[13] = read-out: pLC50 (the source's name) (converted)

COc1cc(Cl)cc(-c2nn(-c3cccc(NC(=O)c4cccc(C(F)(F)F)c4)c3)cc2-c2ccncc2)c1
growth at 100 µM (HL-60(TB)): 49% | growth at 0.1 µM (OVCAR-5): 94% | growth at 1 µM (OVCAR-8 [1]): 93% | growth at 1 µM (SK-MEL-5): 57% | growth at 0.01 µM (M14): 101% | growth at 100 µM (SNB-75): 49% | growth at 1 µM (NCI-H460): 93% | growth at 1 µM (OVCAR-3): 102% | growth at 100 µM (OVCAR-8 [2]): 41% | IC50 (HCT-116): 3.17 µM | GI50 (HCT-116; read-out: GI50): 3.17 µM | CC50 (HCT-116; [12]): > 100 µM | TGI (HCT-116; read-out: TGI): > 100 µM | GI50 (HCT-116; read-out: pGI50 (converted)): 3.16 µM | CC50 (HCT-116; [13]): > 100 µM | TGI (HCT-116; read-out: pTGI (converted)): > 100 µM | growth at 10 µM (NCI-H522 [3]): 32.2% | growth at 100 µM (T47D [4]): 15% | growth at 100 µM (SF-295): 35% | growth at 1 µM (COLO 205 [5]): 94% | GI50 (SN12C; read-out: GI50): > 100 µM | LC50 (SN12C; read-out: LC50): > 100 µM | TGI (SN12C; read-out: TGI): > 100 µM | GI50 (SN12C; read-out: pGI50 (converted)): > 100 µM | LC50 (SN12C; read-out: pLC50 (converted)): > 100 µM | TGI (SN12C; read-out: pTGI (converted)): > 100 µM | growth at 100 µM (KM12): 28% | growth at 0.01 µM (NCI-H522 [6]): 51% | growth at 100 µM (NCI-H23): 27% | growth at 1 µM (OVCAR-4 [7]): 97% | growth at 0.01 µM (MCF7): 93% | growth at 0.1 µM (OVCAR-8 [8]): 94% | growth at 1 µM (HT-29): 70% | growth at 100 µM (COLO 205 [9]): 45% | growth at 0.1 µM (SNB-19): 97% | growth at 0.1 µM (K562): 112% | growth at 1 µM (SK-OV-3): 99% | growth at 0.1 µM (NCI-H226): 90% | growth at 0.01 µM (HOP-62): 104% | GI50 (OVCAR-4 [10]; read-out: GI50): > 100 µM | CC50 (OVCAR-4 [10]; [12]): > 100 µM | TGI (OVCAR-4 [10]; read-out: TGI): > 100 µM | GI50 (OVCAR-4 [10]; read-out: pGI50 (converted)): > 100 µM | CC50 (OVCAR-4 [10]; [13]): > 100 µM | TGI (OVCAR-4 [10]; read-out: pTGI (converted)): > 100 µM | growth at 1 µM (T47D [11]): 92% | growth at 100 µM (SR): 15% | growth at 0.01 µM (SK-MEL-2): 52%

COc1cc(Cl)cc(-c2nn(-c3cccc(NC(=O)c4ccc(N5CCOCC5)c(C(F)(F)F)c4)c3)cc2-c2ccncc2)c1
growth at 100 µM (HL-60(TB)): -15% | growth at 0.1 µM (OVCAR-5): 78% | growth at 1 µM (OVCAR-8 [1]): 56% | growth at 1 µM (SK-MEL-5): 50% | growth at 0.01 µM (M14): 97% | growth at 100 µM (SNB-75): 18% | growth at 1 µM (NCI-H460): 96% | growth at 1 µM (OVCAR-3): 100% | growth at 100 µM (OVCAR-8 [2]): 32% | IC50 (HCT-116): 9.64 µM | GI50 (HCT-116; read-out: GI50): 9.54 µM | CC50 (HCT-116; [12]): > 100 µM | TGI (HCT-116; read-out: TGI): > 100 µM | GI50 (HCT-116; read-out: pGI50 (converted)): 9.55 µM | CC50 (HCT-116; [13]): > 100 µM | TGI (HCT-116; read-out: pTGI (converted)): > 100 µM | growth at 10 µM (NCI-H522 [3]): 52.7% | growth at 100 µM (T47D [4]): 33% | growth at 100 µM (SF-295): -32% | growth at 1 µM (COLO 205 [5]): 104% | GI50 (SN12C; read-out: GI50): > 100 µM | LC50 (SN12C; read-out: LC50): > 100 µM | TGI (SN12C; read-out: TGI): > 100 µM | GI50 (SN12C; read-out: pGI50 (converted)): > 100 µM | LC50 (SN12C; read-out: pLC50 (converted)): > 100 µM | TGI (SN12C; read-out: pTGI (converted)): > 100 µM | growth at 100 µM (KM12): 20% | growth at 0.01 µM (NCI-H522 [6]): 94% | growth at 100 µM (NCI-H23): 38% | growth at 1 µM (OVCAR-4 [7]): 94% | growth at 0.01 µM (MCF7): 91% | growth at 0.1 µM (OVCAR-8 [8]): 100% | growth at 1 µM (HT-29): 93% | growth at 100 µM (COLO 205 [9]): 38% | growth at 0.1 µM (SNB-19): 94% | growth at 0.1 µM (K562): 95% | growth at 1 µM (SK-OV-3): 103% | growth at 0.1 µM (NCI-H226): 98% | growth at 0.01 µM (HOP-62): 104% | GI50 (OVCAR-4 [10]; read-out: GI50): 3.97 µM | CC50 (OVCAR-4 [10]; [12]): > 100 µM | TGI (OVCAR-4 [10]; read-out: TGI): > 100 µM | GI50 (OVCAR-4 [10]; read-out: pGI50 (converted)): 39.8 µM | CC50 (OVCAR-4 [10]; [13]): > 100 µM | TGI (OVCAR-4 [10]; read-out: pTGI (converted)): > 100 µM | growth at 1 µM (T47D [11]): 93% | growth at 100 µM (SR): 4% | growth at 0.01 µM (SK-MEL-2): 96%
